Laboratory results as given in paper PMC2926596 (Nucleic Acids Research, 2010).

Molecular target: T1, ϕ6 P2 (RNA-directed RNA polymerase, RdRP) (Pseudomonas phage phi6, UniProt P11124)
T1 sequence (P11124 1-665): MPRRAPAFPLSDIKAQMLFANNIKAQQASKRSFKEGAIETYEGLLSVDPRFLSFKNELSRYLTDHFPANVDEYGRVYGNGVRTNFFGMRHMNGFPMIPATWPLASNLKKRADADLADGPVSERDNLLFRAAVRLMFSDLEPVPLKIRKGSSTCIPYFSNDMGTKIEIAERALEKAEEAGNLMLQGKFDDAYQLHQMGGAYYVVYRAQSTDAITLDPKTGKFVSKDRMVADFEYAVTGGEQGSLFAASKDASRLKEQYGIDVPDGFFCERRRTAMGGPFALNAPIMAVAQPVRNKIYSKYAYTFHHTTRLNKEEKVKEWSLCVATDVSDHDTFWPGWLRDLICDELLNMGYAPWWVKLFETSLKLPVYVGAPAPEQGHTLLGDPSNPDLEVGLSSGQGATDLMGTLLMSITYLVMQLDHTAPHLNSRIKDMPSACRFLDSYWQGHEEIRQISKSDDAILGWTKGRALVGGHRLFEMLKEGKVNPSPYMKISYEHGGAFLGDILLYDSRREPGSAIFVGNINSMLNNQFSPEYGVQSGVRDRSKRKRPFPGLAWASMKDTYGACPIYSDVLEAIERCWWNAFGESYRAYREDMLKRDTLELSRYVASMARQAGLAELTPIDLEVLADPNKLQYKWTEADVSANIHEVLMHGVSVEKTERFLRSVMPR
Assay: tryptophan fluorescence quenching titration
Format: binding

| Kd | Compound |
| --- | --- |
| 271 ± 31 µM | Nc1nc2c(ncn2[C@@H]2O[C@H](COP(=O)(O)CP(=O)(O)OP(=O)(O)O)[C@@H](O)[C@H]2O)c(=O)[nH]1 [GMPCPP] |
| 317 ± 31 µM | Nc1nc2c(ncn2[C@@H]2O[C@H](COP(=O)(O)OP(=O)(O)NP(=O)(O)O)[C@@H](O)[C@H]2O)c(=O)[nH]1 [GMPPNP] |
